Values joined by “and” are separate entries in the source; they are usually repeats but may differ in a detail not shown here. Equal entries are not always repeated. Active and inactive are the calls of the source. How the calls were made is not given here; tested in parental BL2 cells. Numbered stars: 1 amine (or outer) side, 2 acyl side, 3 side chain; on linkers, the order of the positions; unused ones are H or OH. Bridge positions count the residues as written; N and C are the ends. Square brackets hold non-standard residues; d marks the D form. Peptide text beside a SMILES is read from it. I, II: the chains in the order shown. Actinocin(9to1) = Cc1c2oc3c(C)ccc(C(=O)[*:1])c3nc-2c(C(=O)[*:2])c(N)c1=O; NMeV = CN[CH](C(=O)O)C(C)C; Sar = CNCC(=O)O
system: cytotoxicity, CellTiter-Glo ATP luminescence; assay: loss of cell viability by ATP content – CellTiter-Glo, cytotoxicity control, dose response (AID 1259333)

SMILES	AC50
COc1ccc(S(=O)(=O)Nc2ccc3c(c2)C(=O)N([C@H](C)CO)C[C@H](C)[C@@H](CN(C)Cc2ccc(C(F)(F)F)cc2)OCCCC[C@@H](C)O3)cc1	10.5 µM
N#Cc1cccc(-c2ccc(C3[C@H]4CNC[C@@H]3N4Cc3ccc4c(c3)OCO4)cc2)c1 (stereo partly drawn)	> 20 µM (inactive)
NS(=O)(=O)c1cc2c(cc1C(F)(F)F)NC(Cc1ccccc1)NS2(=O)=O (stereo not drawn)	> 20 µM (inactive)
OCC1OC(n2cnc3cc(Cl)c(Cl)cc32)C(O)C1O (stereo not drawn)	> 20 µM (inactive)
C[C@@H]1CN([C@@H](C)CO)C(=O)c2c(c3ccccc3n2C)-c2ccccc2CO[C@H]1CN(C)Cc1ccccc1	9.77 µM
CC(C(=O)O)c1ccc(N2Cc3ccccc3C2=O)cc1 (stereo not drawn)	9.56 µM
COc1c(O)cc2oc3cc(O)c(CC=C(C)C)c(O)c3c(=O)c2c1CC=C(C)C	6.98 µM
C[C@@H]1CN([C@H](C)CO)C(=O)c2cc(NC(=O)Nc3cccc4ccccc34)ccc2O[C@@H](C)CCCCO[C@H]1CN(C)Cc1ccc(C(F)(F)F)cc1	> 20 µM (inactive)
CCCCCCCCCCCCCCCC[n+]1ccccc1	1.55 µM
N#Cc1c(Br)n(C2OC(CO)C(O)C2O)c2ncnc(N)c12 (stereo not drawn)	4.91 µM
CC(C)NC(=O)N1CC(=O)N2[C@H](CO)[C@@H](c3ccc(/C=C/c4ccccc4)cc3)[C@H]2C1	> 20 µM (inactive)
N=C(N)c1ccc(OCCCCCOc2ccc(C(=N)N)cc2)cc1	> 20 µM (inactive)
Cc1ccc(OCCn2cnc3c(N)ncnc32)cc1	> 20 µM (inactive)
Cc1noc(C)c1S(=O)(=O)Nc1ccc2c(c1)C(=O)N([C@@H](C)CO)C[C@H](C)[C@@H](CN(C)C(=O)Nc1cccc3ccccc13)OCCCC[C@H](C)O2	> 20 µM (inactive)
CO[C@H]1CC(O[C@@H]2/C(C)=C/C[C@@H]3C[C@@H](C[C@]4(CC[C@H](C)[C@@H](C5CCCCC5)O4)O3)OC(=O)[C@@H]3C=C(C)/C(=N/O)[C@H]4OC/C(=C\C=C\[C@@H]2C)[C@]43O)O[C@@H](C)C1O (stereo partly drawn)	9.15 µM
CC[C@@]1(O)C(=O)OCc2c1cc1n(c2=O)Cc2cc3ccccc3nc2-1	9.41 µM
O=C(c1ccc(Nc2nccc(-c3cc4ccccc4s3)n2)cc1)N1CCC(N2CCCC2)CC1	3.83 µM and 1.17 µM
OC(CCN1CCCCC1)c1ccc(-c2ccccc2)cc1 (stereo not drawn)	> 20 µM (inactive)
C[C@@H]1CCCCO[C@@H](CN(C)S(=O)(=O)c2ccc(Cl)cc2)[C@H](C)CN([C@H](C)CO)C(=O)c2cc(NC(=O)Nc3ccc(C(F)(F)F)cc3)ccc2O1	6.61 µM
N#C[C@H]1[C@@H](c2ccc(C#CC3CCCCC3)cc2)[C@@H](CO)N1C(=O)Nc1ccc(F)cc1	> 20 µM (inactive)
C[C@@H]1CCCCO[C@H](CN(C)Cc2ccc(C(F)(F)F)cc2)[C@@H](C)CN([C@@H](C)CO)C(=O)c2cc(NC(=O)Nc3cccc4ccccc34)ccc2O1	10.7 µM
Cc1c2oc3c(C)ccc(C(=O)OC(C)C4NC(=O)C(C(C)C)N(C)C(=O)CN(C)C(=O)C5CCCN5C(=O)C(C(C)C)NC4=O)c3nc-2c(C(=O)OC(C)C2NC(=O)C(C(C)C)N(C)C(=O)CN(C)C(=O)C3CCCN3C(=O)C(C(C)C)NC2=O)c(N)c1=O (stereo not drawn) (I: cyclo([Sar][NMeV]TVP) / II: cyclo([Sar][NMeV]TVP); linker I:3-II:3 via Actinocin(9to1); configuration not given here)	> 20 µM (inactive)
CC(=O)OCC12CC(OC(=O)CC(C)C)C(C)=CC1OC1C(O)C(OC(C)=O)C2(C)C12CO2 (stereo not drawn)	3.67 µM
COc1ccc2c(c1)c1ncn(Cc3ccccn3)c(=O)c1n2C	> 20 µM (inactive)
COc1ccc(S(=O)(=O)Nc2ccc3c(c2)C(=O)N([C@H](C)CO)C[C@@H](C)[C@H](CN(C)Cc2ccc(C(F)(F)F)cc2)OCCCC[C@@H](C)O3)cc1	8.94 µM
C[C@H]1CN([C@@H](C)CO)C(=O)c2ccccc2-c2ccccc2CO[C@H]1CN(C)Cc1ccc(Oc2ccccc2)cc1	> 20 µM (inactive)

SMILES	AC50
OC1CC2CCC(C1)N2CCCN1c2ccccc2Sc2ccc(Cl)cc21 (stereo not drawn)	10.6 µM
O=C(Nc1ccccn1)c1ccc(-c2ccccc2)cc1	> 20 µM (inactive)
Nc1cccc2nc3ccccc3cc12	1.96 µM
NCCOc1ccc(C23CC4CC(CC(C4)C2)C3)cc1	4.9 µM
C[C@@H]1CCCCO[C@@H](CN(C)Cc2ccc(Cl)c(Cl)c2)[C@H](C)CN([C@H](C)CO)C(=O)c2cc(NS(=O)(=O)c3cccs3)ccc2O1	8.68 µM
O=C(Cc1ccccc1)N1CC[C@@H]2[C@H]1c1cc(C#Cc3cccc(F)c3)ccc1N[C@@H]2CO	10.8 µM
COc1ccc2c3c(n(C)c2c1)[C@H](CO)N(C(C)=O)CC31CN(Cc2ccc(Cl)cc2)C1	> 20 µM (inactive)
C[C@@H]1O[C@@H](O[C@H]2C[C@@H](O)[C@]3(CO)C4C(CC[C@]3(O)C2)[C@@]2(O)CC[C@H](C3=CC(=O)OC3)[C@@]2(C)C[C@H]4O)[C@H](O)[C@H](O)[C@H]1O (stereo partly drawn)	0.379 µM
NC(c1csc(NC(=O)Nc2cccc(Cl)c2)n1)c1ccccc1Cl (stereo not drawn)	> 20 µM (inactive)
C[C@@H]1CN([C@@H](C)CO)C(=O)c2c(c3ccccc3n2C)-c2ccccc2CO[C@H]1CN(C)S(=O)(=O)c1ccc([N+](=O)[O-])cc1	> 20 µM (inactive)
C[C@@H]1CN([C@@H](C)CO)C(=O)c2c(c3ccccc3n2C)-c2ccccc2CO[C@H]1CN(C)Cc1cccc(C(F)(F)F)c1	3.94 µM
Cn1cnc(CCNC(=O)C[C@@H]2CC[C@@H]3[C@H](COC[C@@H](O)CN3C(=O)Nc3ccc(C(F)(F)F)cc3)O2)c1	> 20 µM (inactive)
Clc1ccc(CSC(Cn2ccnc2)c2ccc(Cl)cc2Cl)cc1 (stereo not drawn)	> 20 µM (inactive)
CC12CCC3C(CCC4(O)CC(O)CCC34C=O)C1(O)CCC2C1=CC(=O)OC1 (stereo not drawn)	3.23 µM
C[C@H]1CN([C@@H](C)CO)C(=O)c2c(c3ccccc3n2C)-c2ccccc2CO[C@@H]1CN(C)C(=O)Nc1ccccc1C(F)(F)F	> 20 µM (inactive)
CC(C)(C)CC(C)(C)c1ccc(O)c(Cc2ccc(Cl)cc2Cl)c1	7.05 µM
COC(=O)c1nn(-c2ccc(-c3ccccc3)cc2)cc1O	> 20 µM (inactive)
CC(C)[C@H](CO)Nc1nc(Nc2cccc(Cl)c2)c2ncn(C(C)C)c2n1	2.86 µM
COc1ccc(S(=O)(=O)Nc2ccc3c(c2)C(=O)N([C@@H](C)CO)C[C@@H](C)[C@@H](CN(C)Cc2ccc(C(F)(F)F)cc2)OCCCC[C@H](C)O3)cc1	> 20 µM (inactive)
N#C[C@@H]1[C@H](c2ccc(C#CC3CCCCC3)cc2)[C@@H](CO)N1C(=O)Nc1ccc(F)cc1	> 20 µM (inactive)
COc1ccc(CC2C(=O)NC(C)C(=O)N(C)C3Cc4ccc(cc4)Oc4cc(ccc4O)CC(C(=O)NC(C)C(=O)NC(C)C(=O)N2C)N(C)C3=O)cc1 (stereo not drawn)	10.8 µM
CNc1c2cccc(C)c2nc2c(C(=O)NCCN(C)C)cccc12	5.98 µM
O=C(c1ccc(-c2ccc([N+](=O)[O-])cc2)o1)N1CCCC(C(F)(F)F)C1 (stereo not drawn)	> 20 µM (inactive)
C[C@@H]1CN([C@@H](C)CO)C(=O)c2c(c3ccccc3n2C)-c2ccccc2CO[C@@H]1CN(C)Cc1cccc(C(F)(F)F)c1	> 20 µM (inactive)
CN(C)C(=S)SSC(=S)N(C)C	1.36 µM
COc1ccc(/C=C\c2nc(=O)c3ccccc3o2)cc1	6.79 µM

SMILES	AC50
O=C1NC2C(O)C(O)C(O)C(O)C2c2cc3c(c(O)c21)OCO3 (stereo not drawn)	9.05 µM
C[n+]1c(-c2ccccc2)cc2c(=Cc3ccc([N+](=O)[O-])cc3)c3ccccc3n21	9.92 µM
CC1OC(OC2CC(O)C3(CO)C4C(O)CC5(C)C(C6=CC(=O)OC6)CCC5(O)C4CCC3(O)C2)C(O)C(O)C1O (stereo not drawn)	0.236 µM
CCCNC(=O)N1[C@H](C#N)[C@@H](c2ccc(-c3cccc(OC)c3)cc2)[C@H]1CO	> 20 µM (inactive)
COc1cc(/C=N/n2cnnc2)ccc1OC(=O)c1ccncc1	8.07 µM
COc1cc2cc(C(=O)N3CC(COS(C)(=O)=O)c4ccc(O)cc43)[nH]c2c(OC)c1OC (stereo not drawn)	0.276 µM
C[C@H](CO)N1C[C@H](C)[C@@H](CN(C)Cc2ccc(Oc3ccccc3)cc2)Oc2c(NC(=O)CCC(F)(F)F)cccc2C1=O	6.84 µM
COC(=O)C1=C(C(=O)OC)C2OC1c1cc3ccccc3cc12	2.65 µM
N#C[C@@H]1[C@H](c2ccc(C#CC3CCCC3)cc2)[C@H](CO)N1C(=O)Cc1ccccn1	> 20 µM (inactive)
COc1ccc(S(=O)(=O)Nc2ccc3c(c2)C(=O)N([C@H](C)CO)C[C@@H](C)[C@@H](CN(C)Cc2ccc(C(F)(F)F)cc2)OCCCC[C@H](C)O3)cc1	> 20 µM (inactive)
N#C[C@H]1[C@H](c2ccc(C#Cc3ccccc3F)cc2)[C@@H](CO)N1C(=O)c1cccnc1	11.2 µM
CC(C)c1c(O)ccc2c1CCC1C(C)(C)CCC[C@]21C (stereo partly drawn)	6.74 µM
Cc1cc(OCC(=O)OCC(=O)NCc2ccco2)ccc1Cl	2.21 µM
C[C@@H]1CCCCO[C@H](CN(C)CC2CCCCC2)[C@H](C)CN([C@@H](C)CO)C(=O)c2cc(NC(=O)Nc3ccc(C(F)(F)F)cc3)ccc2O1	4.91 µM
c1ccc(-c2nc(-c3ccccn3)no2)cc1	11.5 µM
c1ccc2sc(-c3ccc4c(c3)OCO4)nc2c1	5.19 µM
CC1CC(C)C(=O)C(C(O)CC2CC(=O)NC(=O)C2)C1 (stereo not drawn)	> 20 µM (inactive)
[O-]C(=C(C(=S)Nc1cccc2ccccc12)[n+]1ccccc1)c1ccc2c(c1)OCCO2	> 7 µM (inactive)
Cc1cc(C)nc(Sc2ncnc(N)c2[N+](=O)[O-])n1	> 20 µM (inactive)
CCC(C)[C@H]1O[C@]2(CC[C@@H]1C)C[C@@H]1C[C@@H](C/C=C(\C)[C@@H](OC3C[C@H](OC)C(O[C@H]4C[C@H](OC)[C@@H](O)[C@H](C)O4)[C@H](C)O3)[C@@H](C)/C=C/C=C3\CO[C@@H]4[C@H](O)C(C)=C[C@@H](C(=O)O1)[C@]34O)O2 (stereo partly drawn)	> 20 µM (inactive)
N#C[C@@H]1[C@H](c2ccc(C#CC3CCCCC3)cc2)[C@H](CO)N1C(=O)Nc1ccc(F)cc1	> 20 µM (inactive)
CC(C)=CCc1c2c(c3occ(-c4ccc(O)c(O)c4)c(=O)c3c1O)C=CC(C)(C)O2	5.55 µM
O=C1NC2C(=CC(O)C(O)C2O)c2cc3c(c(O)c21)OCO3 (stereo not drawn)	10 µM
COc1ccc2c3c(n(C)c2c1)[C@H](CO)N(C(=O)Nc1ccc(F)cc1)CC31CCN(C(=O)c2ccc3c(c2)OCO3)CC1	> 20 µM (inactive)
COc1ccccc1C(=O)Nc1ccc2c(c1)C(=O)N(C)[C@H]1CC[C@H](CC(=O)Nc3cccc(C(C)C)c3)O[C@@H]1CO2	> 20 µM (inactive)
CC(C)c1ccc(NC(=O)Nc2nc(C(N)COCc3ccccc3)cs2)cc1 (stereo not drawn)	4.21 µM
